From ChEMBL document CHEMBL5620370, “1,3-Thiazole derivatives as privileged structures for anti-Trypanosoma cruzi activity: Rational design, synthesis, in silico and in vitro studies” (Eur J Med Chem, 2023)
The source made the active and inactive calls. The calls are words filed in the database; no cut-off is given here.

Tests used:
[1] = Cytotoxicity against mouse RAW264.7 cells assessed as inhibition of cell growth incubated for 72 hrs by MTT assay; type: toxicity, cell-based
[2] = Selectivity index, ratio of CC50 for cytotoxicity against mouse RAW264.7 cells to IC50 for antitrypanosomal activity against Trypanosoma cruzi Tulahuen amastigotes transfected in L929 cells assessed as inhibition of parasite growth; type: toxicity, cell-based; details: read-out: Ratio CC50/IC50
[3] = Selectivity index, ratio of CC50 for cytotoxicity against mouse RAW264.7 cells to IC50 for antitrypanosomal activity against Trypanosoma cruzi Dm28 epimastigotes assessed as inhibition of parasite growth; type: toxicity, cell-based; details: read-out: Ratio CC50/IC50
[4] = system: Trypanosoma cruzi; assay: Antitrypanosomal activity against Trypanosoma cruzi Tulahuen amastigotes transfected in L929 cells assessed as inhibition of parasite growth incubated for 96 hrs by CPRG based spectrophotometric analysis; type: functional, organism-based; details: L929, 96 h
[5] = system: Trypanosoma cruzi; assay: Antitrypanosomal activity against Trypanosoma cruzi Dm28 epimastigotes assessed as inhibition of parasite growth incubated for 96 hrs by Neubauer chamber based analysis; type: functional, organism-based; details: Dm28, 96 h
[6] = system: Trypanosoma cruzi; assay: Induction of apoptosis in Trypanosoma cruzi Y strain trypomastigotes assessed as late apoptosis at 1 times IC50 incubated for 24 hrs by Annexin V-FITC/7AAD staining based flow cytometry; type: functional, organism-based
[7] = Selectivity index, ratio of CC50 for cytotoxicity against mouse RAW264.7 cells to IC50 for antitrypanosomal activity against Trypanosoma cruzi Y strain trypomastigotes transfected in African green monkey Vero cells assessed as inhibition of parasite growth; type: toxicity, cell-based; details: read-out: Ratio CC50/IC50
[8] = system: Trypanosoma cruzi; assay: Induction of DNA damage in Trypanosoma cruzi Y strain trypomastigotes at 2 times IC50 incubated for 24 hrs by acridine orange staining based flow cytometry; type: functional, organism-based
[9] = system: Trypanosoma cruzi; assay: Induction of apoptosis in Trypanosoma cruzi Y strain trypomastigotes assessed as early apoptosis at 1 times IC50 incubated for 24 hrs by Annexin V-FITC/7AAD staining based flow cytometry; type: functional, organism-based
[10] = system: Trypanosoma cruzi; assay: Induction of apoptosis in Trypanosoma cruzi Y strain trypomastigotes assessed as necrosis at 1 times IC50 incubated for 24 hrs by Annexin V-FITC/7AAD staining based flow cytometry; type: functional, organism-based
[11] = system: Trypanosoma cruzi; assay: Antitrypanosomal activity against Trypanosoma cruzi Y strain trypomastigotes transfected in African green monkey Vero cells assessed as inhibition of parasite growth incubated for 24 hrs by Neubauer chamber based analysis; type: functional, organism-based
[12] = system: Trypanosoma cruzi; assay: Induction of mitochondrial membrane potential loss in Trypanosoma cruzi Y strain trypomastigotes at 1 times IC50 incubated for 24 hrs by Rhodamine 123 staining based flow cytometry; type: organism-based
[13] = system: Trypanosoma cruzi; assay: Induction of DNA damage in Trypanosoma cruzi Y strain trypomastigotes at 1 times IC50 incubated for 24 hrs by acridine orange staining based flow cytometry; type: functional, organism-based
[14] = system: Trypanosoma cruzi; assay: Induction of mitochondrial membrane potential loss in Trypanosoma cruzi Y strain trypomastigotes at 2 times IC50 incubated for 24 hrs by Rhodamine 123 staining based flow cytometry; type: organism-based
[15] = system: Trypanosoma cruzi; assay: Induction of apoptosis in Trypanosoma cruzi Y strain trypomastigotes assessed as early apoptosis at 2 times IC50 incubated for 24 hrs by Annexin V-FITC/7AAD staining based flow cytometry; type: functional, organism-based
[16] = system: Trypanosoma cruzi; assay: Induction of apoptosis in Trypanosoma cruzi Y strain trypomastigotes assessed as late apoptosis at 9.64 uM incubated for 24 hrs by Annexin V-FITC/7AAD staining based flow cytometry; type: functional, organism-based
[17] = system: Trypanosoma cruzi; assay: Induction of apoptosis in Trypanosoma cruzi Y strain trypomastigotes assessed as fold increase in early apoptosis incubated for 24 hrs by Annexin V-FITC/7AAD staining based flow cytometry; type: functional
[18] = system: Trypanosoma cruzi; assay: Induction of apoptosis in Trypanosoma cruzi Y strain trypomastigotes assessed as fold increase in late apoptosis incubated for 24 hrs by Annexin V-FITC/7AAD staining based flow cytometry; type: functional
[19] = system: Trypanosoma cruzi; assay: Induction of apoptosis in Trypanosoma cruzi Y strain trypomastigotes assessed as necrosis at 9.64 uM incubated for 24 hrs by Annexin V-FITC/7AAD staining based flow cytometry; type: functional, organism-based
[20] = system: Trypanosoma cruzi; assay: Induction of apoptosis in Trypanosoma cruzi Y strain trypomastigotes assessed as late apoptosis at 50.9 uM incubated for 24 hrs by Annexin V-FITC/7AAD staining based flow cytometry; type: functional, organism-based
[21] = system: Trypanosoma cruzi; assay: Induction of apoptosis in Trypanosoma cruzi Y strain trypomastigotes assessed as necrosis at 50.9 uM incubated for 24 hrs by Annexin V-FITC/7AAD staining based flow cytometry; type: functional, organism-based
[22] = system: Trypanosoma cruzi; assay: Induction of apoptosis in Trypanosoma cruzi Y strain trypomastigotes assessed as late apoptosis at 131.92 uM incubated for 24 hrs by Annexin V-FITC/7AAD staining based flow cytometry; type: functional, organism-based
[23] = system: Trypanosoma cruzi; assay: Induction of apoptosis in Trypanosoma cruzi Y strain trypomastigotes assessed as necrosis at 131.92 uM incubated for 24 hrs by Annexin V-FITC/7AAD staining based flow cytometry; type: functional, organism-based

SMILES	CC50 at 72 h [1] [µM]	selectivity ratio [2]	selectivity ratio [3]	IC50 [4] [µM]	IC50 [5] [µM]	selectivity ratio [7]	IC50 [11] [µM]	other results
C/C(=N\Nc1nc(-c2ccc(Br)cc2)cs1)c1ccc(Cl)c(Cl)c1Cl	29.9	5	5.68	5.96	5.25			
C/C(=N\Nc1nc(-c2ccc(F)cc2)cs1)c1ccc(Cl)c(Cl)c1Cl	42.2	1.51	2.17	27.9	19.4	1.96	21.5	Activity [6]: Active; Activity [8]: Active; Activity [9]: Active; Activity [10]: Active; Activity [12]: inactive; Activity [13]: Active; Activity [14]: inactive; Activity [15]: Active
C/C(=N\Nc1nc(-c2ccc(Cl)c(Cl)c2)cs1)c1ccc(Cl)cc1Cl	97.3	3.44	15.2	28.3	6.41	20.2	4.82	Activity [6]: Active; Activity [8]: Active; Activity [9]: Active; Activity [10]: Active; Activity [16]: Active; fold change (FC) [17]: 5; Activity [12]: inactive; Activity [14]: inactive; fold change (FC) [18]: 4; Activity [15]: Active; Activity [19]: Active
C/C(=N\Nc1nc(-c2ccccc2)cs1)c1ccc(Cl)c(Cl)c1Cl	30.2	1.46	2.18	20.6	13.8	2.61	11.5	
C/C(=N\Nc1nc(-c2ccc(Cl)cc2Cl)cs1)c1ccc(Cl)c(Cl)c1Cl	36.3	2.67	4.35	13.6	8.33	8.89	4.08	
C/C(=N\Nc1nc(-c2ccc(Cl)c(Cl)c2)cs1)c1ccc(Cl)c(Cl)c1Cl	44.9	1.76	1.39	25.4	32.1	1.76	25.4	Activity [6]: Active; Activity [8]: inactive; Activity [9]: Active; Activity [10]: Active; Activity [12]: Active; Activity [20]: Active; Activity [13]: inactive; Activity [21]: Active; Activity [14]: Active; Activity [15]: Active
C/C(=N\Nc1nc(-c2ccc3ccccc3c2)cs1)c1ccc(Cl)c(Cl)c1Cl	96.2	3.79	8.86	25.4	10.9	1.45	66	Activity [6]: Active; Activity [8]: inactive; Activity [9]: Active; Activity [10]: Active; Activity [22]: Active; Activity [12]: inactive; Activity [13]: inactive; Activity [14]: inactive; Activity [15]: Active; Activity [23]: Active
C/C(=N\Nc1nc(-c2cccc([N+](=O)[O-])c2)cs1)c1ccc(Cl)c(Cl)c1Cl	29.2	6.55	3.47	4.46	8.42			
C/C(=N\Nc1nc(-c2ccc(Cl)cc2)cs1)c1ccc(Cl)cc1Cl	55.1	5.21	7.3	10.6	7.55	3.07	17.9	
C/C(=N\Nc1nc(-c2ccc(Cl)cc2)cs1)c1ccc(Cl)c(Cl)c1Cl	39.6	4.55	3.73	8.71	10.6	12.1	3.27	
C/C(=N\Nc1nc(-c2ccccc2)cs1)c1ccc(Cl)cc1Cl	42.8	2	5.76	21.3	7.42	0.93	45.9	
C/C(=N\Nc1nc(-c2ccc([N+](=O)[O-])cc2)cs1)c1ccc(Cl)c(Cl)c1Cl	88.5	1.95	3.05	45.3	28.9			
C/C(=N\NC1NC(=O)CS1)c1ccc(Cl)cc1Cl (stereo unspecified)							1.12	
COc1ccc(-c2csc(N/N=C(\C)c3ccc(Cl)cc3Cl)n2)cc1	43.1	11.8	12.4	3.65	3.48	0.95	45.3	Activity [6]: Active; Activity [8]: inactive; Activity [9]: Active; Activity [10]: Active; Activity [12]: Active; Activity [13]: inactive; Activity [14]: Active; Activity [15]: Active
O=C(Cn1ccnc1[N+](=O)[O-])NCc1ccccc1 [BENZNIDAZOLE]	44.2	7.83	0.77	5.64	56.9	1.07	41	
C/C(=N\Nc1nc(-c2ccc(-c3ccccc3)cc2)cs1)c1ccc(Cl)c(Cl)c1Cl	62.2	4.83	7.22	12.9	8.62	23.6	2.64	
C/C(=N\Nc1nc(-c2ccc(-c3ccccc3)cc2)cs1)c1ccc(Cl)cc1Cl	80.1	5.38	3.96	14.9	20.2	7.58	10.6	
COc1ccc(-c2csc(N/N=C(\C)c3ccc(Cl)c(Cl)c3Cl)n2)cc1	27.1	3.45	3.43	7.84	7.88	0.87	30.9	
